Patent US8574563B2 (Bristol-Myers Squibb Company, priority 2006, dated 2013)

Test system: HCV 1b-377-neo replicon cells
Test: HCV replicon assay, HCV 1b-377-neo replicon cells (1b FRET)
Assay type: cell-based, Hepatitis C virus genotype 1b
Conditions: Hepatitis C virus, HCV 1b-377-neo replicon cells; HCV 1b genotype; read-out: EC50 range against HCV 1b (Table 2, Range)
Outline: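 FRET-based replicon assay in HCV 1b-377-neo cells, including a comparison line carrying the NS5A Y2065H mutation that confers resistance to a reference compound.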

Compound `COC(=O)N[C@H](C(=O)N1CCC[C@H]1c1ncc(-c2ccc(-c3ccc(-c4nc([C@@H]5CCCN5C(=O)[C@@H](NC(=O)OC)C(C)C)[nH]c4C)cc3)cc2)[nH]1)C(C)C` [Example E5e, methyl ((1S)-1-(((2S)-2-(4-(4′-(2-((2S)-1-((2S)-2-((methoxycarbonyl)amino)-3-methylbutanoyl)-2-pyrrolidinyl)-1H-imidazol-4-yl)-4-biphenylyl)-5-methyl-1H-imidazol-2-yl)-1-pyrrolidinyl)carbonyl)-2-methylpropyl)carbamate] has an EC50 of 0.001 to 0.999 nM.

`Cc1nc([C@@H]2CCCN2C(=O)[C@@H](c2ccccc2)N(C)C)[nH]c1-c1ccc(-c2ccc(-c3nc([C@@H]4CCCN4C(=O)[C@@H](c4ccccc4)N(C)C)[nH]c3C)cc2)cc1` [Example E5g, (1R,1′R)-2,2′-(4,4′-biphenyldiylbis((4-methyl-1H-imidazole-5,2-diyl)(2S)-2,1-pyrrolidinediyl))bis(N,N-dimethyl-2-oxo-1-phenylethanamine)] was tested, and the EC50 was 0.001 to 0.999 nM.

`CCN(CC)[C@@H](C(=O)N1CCC[C@H]1c1nc(-c2ccc(-c3ccc(-c4[nH]c([C@@H]5CCCN5C(=O)[C@@H](c5ccccc5)N(CC)CC)nc4C)cc3)cc2)c(C)[nH]1)c1ccccc1` [Example E5h, (1R,1′R)-2,2′-(4,4′-biphenyldiylbis((4-methyl-1H-imidazole-5,2-diyl)(2S)-2,1-pyrrolidinediyl))bis(N,N-diethyl-2-oxo-1-phenylethanamine)] gave an EC50 of 0.001 to 0.999 nM.

For `Cc1nc([C@@H]2CCCN2C(=O)[C@@H](c2ccccc2)N2CCCCC2)[nH]c1-c1ccc(-c2ccc(-c3nc([C@@H]4CCCN4C(=O)[C@@H](c4ccccc4)N4CCCCC4)[nH]c3C)cc2)cc1` [Example E5i, 1,1′-(4,4′-biphenyldiylbis((4-methyl-1H-imidazole-5,2-diyl)(2S)-2,1-pyrrolidinediyl((1R)-2-oxo-1-phenyl-2,1-ethanediyl)))dipiperidine], the EC50 was 0.001 to 0.999 nM.

In the case of `COC(=O)N[C@@H](C(=O)N1CCC[C@H]1c1nc(-c2ccc(-c3ccc(-c4[nH]c([C@@H]5CCCN5C(=O)[C@H](NC(=O)OC)c5ccccc5)nc4C)cc3)cc2)c(C)[nH]1)c1ccccc1` [Example E5j, dimethyl (4,4′-biphenyldiylbis((4-methyl-1H-imidazole-5,2-diyl)(2S)-2,1-pyrrolidinediyl((1R)-2-oxo-1-phenyl-2,1-ethanediyl)))biscarbamate], the EC50 is reported as 0.001 to 0.999 nM.

`COC(=O)N[C@@H](C)C(=O)N1CCC[C@H]1c1nc(-c2ccc(-c3ccc(-c4[nH]c([C@@H]5CCCN5C(=O)[C@H](C)NC(=O)OC)nc4C)cc3)cc2)c(C)[nH]1` [Example E5k, methyl ((1S)-2-((2S)-2-(4-(4′-(2-((2S)-1-(N-(methoxycarbonyl)-L-alanyl)-2-pyrrolidinyl)-5-methyl-1H-imidazol-4-yl)-4-biphenylyl)-5-methyl-1H-imidazol-2-yl)-1-pyrrolidinyl)-1-methyl-2-oxoethyl)carbamate] showed an EC50 of 0.001 to 0.999 nM.

`COC(=O)N[C@H](C(=O)N1CCC[C@H]1c1nc(-c2ccc(-c3ccc(-c4[nH]c([C@@H]5CCCN5C(=O)[C@@H](NC(=O)OC)C(C)C)nc4C)cc3)cc2)c(C)[nH]1)C(C)C` [Example E5l, methyl ((1S)-1-(((2S)-2-(4-(4′-(2-((2S)-1-((2S)-2-((methoxycarbonyl)amino)-3-methylbutanoyl)-2-pyrrolidinyl)-4-methyl-1H-imidazol-5-yl)-4-biphenylyl)-5-methyl-1H-imidazol-2-yl)-1-pyrrolidinyl)carbonyl)-2-methylpropyl)carbamate] gave an EC50 of 0.001 to 0.999 nM.

`COC(=O)N[C@@H](C(=O)N1CCC[C@@H]1c1ncc(-c2ccc(-c3ccc(-c4cnc([C@@H]5CC[C@H](c6ccccc6)N5C(=O)[C@H](NC(=O)OC)c5ccccc5)[nH]4)cc3)cc2)[nH]1)c1ccccc1` [Example F6, methyl ((1R)-2-((2R)-2-(5-(4′-(2-((2S,5R)-1-((2R)-2-((methoxycarbonyl)amino)-2-phenylacetyl)-5-phenyl-2-pyrrolidinyl)-1H-imidazol-5-yl)-4-biphenylyl)-1H-imidazol-2-yl)-1-pyrrolidinyl)-2-oxo-1-phenylethyl)carbamate] gave an EC50 of 0.001 to 0.999 nM.
